Measured values published in US11866430B2, “Naphthyridinone compounds useful as T cell activators” (priority 2018, dated 2024).
Where two headings read alike, the source gives them in different places. Blank lines part the entries; values can stand above or below the compound they belong to.

Experiments:
[1] = test system: pre-activated CD4 T cells and Raji cells; test: Raji CD4 T Cell IL2 Assay; format: cell-based
human DGKα = human DGKα (Homo sapiens (Human), UniProt P23743); test: biochemical; conditions: detergent/lipid micelle substrate; read-out: DGKα IC50
Description: (§1) The DGKα and DGKζ reactions were performed using either extruded liposome (DGKα and DGKζ LIPGLO assays) or detergent/lipid micelle substrate (DGKα and DGKζ assays). The reactions were carried out in 50 mM MOPS pH 7.5, 100 mM NaCl, 10 mM MgCl2, 1 μM CaCl2, and 1 mM DTT (assay buffer). The reactions using a detergent/lipid micelle substrate also contained 50 mM octyl B-D-glucopyranoside. […] The lipid substrate concentrations were […], 0.25 mM DAG, and 2.75 mM PC for the extruded liposome reactions.
(§2) The compound inhibition studies were carried out as follows: 50 nL droplets of each test compound (top concentration 10 mM with 11 point, 3-fold dilution series for each compound) solubilized in DMSO were transferred to wells of a white 1536 well plate (Corning 3725). A 5 mL enzyme/substrate solution at 2× final reaction concentration was prepared by combining 2.5 mL 4× enzyme solution (20 nM DGKα or DGKζ (prepared as described below) in assay buffer) and 2.5 mL of either 4× liposome or 4× detergent/lipid micelle solution (compositions described below) and incubated at room temperature for 10 minutes. Next, 1 μL 2× enzyme/substrate solution was added to wells containing the test compound and reactions were initiated with the addition of 1 μL 300 uM ATP. The reactions were allowed to proceed for 1 hr, after which 2 μL Glo Reagent (Promega V9101) was added and incubated for 40 minutes. Next, 4 μL Kinase Detection Reagent was added and incubated for 30 minutes. Luminescence was recorded using an EnVision microplate reader. […] The compounds were evaluated at 11 concentrations to determine IC50.
(§3) The detergent/lipid micelle was prepared by combining 15 g phosphatidylserine (Avanti 840035P) and 1 g diacylglycerol (800811O) and dissolving into 150 mL chloroform in a 2 L round bottom flask. Chloroform was removed under high vacuum by rotary evaporation. The resulting colorless, tacky oil was resuspended in 400 mL 50 mM MOPS pH 7.5, 100 mM NaCl, 20 mM NaF, 10 mM MgCl2, 1 μM CaCl2), 1 mM DTT, and 200 mM octyl glucoside by vigorous mixing. The lipid/detergent solution was split into 5 mL aliquots and stored at −80° C.
(§4) Human DGK-alpha-TVMV-His-pFBgate and human DCK-zeta-transcript variant-2-TVMV-His-pFBgate baculovirus samples were generated using the Bac-to-Bac baculovirus expression system (Invitrogen) according to the manufacturer's protocol. The DNA used for expression of DGK-alpha and DGK-zeta have SEQ ID NOs: 1 and 3, respectively. Baculovirus amplification was achieved using infected Sf9 cells at 1:1500 virus/cell ratios, and grown for 65 hours at 27° C. post-transfection.
(§5) The expression scale up for each protein was carried out in the Cellbag 50 L WAVE-Bioreactor System 20/50 from GE Healthcare Bioscience. 12 L of 2×10^6 cells/mL Sf9 cells (Expression System, Davis, Calif.) grown in ESF921 insect medium (Expression System) were infected with virus stock at 1:200 virus/cell ratios, and grown for 66-68 hours at 27° C. post-infection. The infected cell culture was harvested by centrifugation at 2000 rpm for 20 min 4° C. in a SORVALL® RC12BP centrifuge. The cell pellets were stored at −70° C. until purification.
(§6) Full length human DGKα and DGKζ, each expressed containing a TVMV-cleavable C-terminal Hexa-His tag sequence (SEQ ID NOs: 2 and 4, respectively) and produced as described above, were purified from Sf) baculovirus-infected insect cell paste. The cells were lysed using nitrogen cavitation method with a nitrogen bomb (Parr Instruments), and the lysates were clarified by centrifugation. […] The three steps column chromatography included nickel affinity resin capture (i.e. HisTrap FF crude, GE Healthcare), followed by size exclusion chromatography (i.e. HiLoad 26/600 Superdex 200 prep grade, GE Healthcare for DGK-alpha, and HiPrep 26/600 Sephacryl S 300_HR, GE Healthcare for DGK-zeta).

human DGKζ = human DGKζ (Homo sapiens (Human), UniProt Q13574); test: DGKζ assay (detergent/lipid micelle substrate); format: biochemical; conditions: detergent/lipid micelle substrate; read-out: DGKζ IC50
Description: as §1, §2, §3, §4, §5, §6

Chain of human DGKα (P23743 other isoform, or with tags, fused parts or gaps): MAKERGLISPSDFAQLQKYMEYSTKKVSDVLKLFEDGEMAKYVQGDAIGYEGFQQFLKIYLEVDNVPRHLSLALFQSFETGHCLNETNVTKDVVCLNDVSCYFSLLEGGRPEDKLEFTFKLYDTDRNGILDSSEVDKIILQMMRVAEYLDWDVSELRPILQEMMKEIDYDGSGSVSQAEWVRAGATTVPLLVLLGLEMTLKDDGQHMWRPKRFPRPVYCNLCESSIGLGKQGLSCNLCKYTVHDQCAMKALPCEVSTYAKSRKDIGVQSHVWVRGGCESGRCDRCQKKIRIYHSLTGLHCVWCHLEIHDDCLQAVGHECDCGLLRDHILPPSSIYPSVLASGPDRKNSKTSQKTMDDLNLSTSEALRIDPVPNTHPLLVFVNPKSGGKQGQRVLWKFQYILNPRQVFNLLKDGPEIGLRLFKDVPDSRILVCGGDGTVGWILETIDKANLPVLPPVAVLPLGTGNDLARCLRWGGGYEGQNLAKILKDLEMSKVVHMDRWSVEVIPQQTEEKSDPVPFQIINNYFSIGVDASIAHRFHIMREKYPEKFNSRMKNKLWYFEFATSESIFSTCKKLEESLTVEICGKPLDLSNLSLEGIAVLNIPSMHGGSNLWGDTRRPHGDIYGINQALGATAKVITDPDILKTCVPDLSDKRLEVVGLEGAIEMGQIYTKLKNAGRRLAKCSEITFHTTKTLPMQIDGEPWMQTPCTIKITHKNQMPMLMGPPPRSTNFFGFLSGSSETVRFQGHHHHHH
Chain of human DGKζ (Q13574 other isoform, or with tags, fused parts or gaps): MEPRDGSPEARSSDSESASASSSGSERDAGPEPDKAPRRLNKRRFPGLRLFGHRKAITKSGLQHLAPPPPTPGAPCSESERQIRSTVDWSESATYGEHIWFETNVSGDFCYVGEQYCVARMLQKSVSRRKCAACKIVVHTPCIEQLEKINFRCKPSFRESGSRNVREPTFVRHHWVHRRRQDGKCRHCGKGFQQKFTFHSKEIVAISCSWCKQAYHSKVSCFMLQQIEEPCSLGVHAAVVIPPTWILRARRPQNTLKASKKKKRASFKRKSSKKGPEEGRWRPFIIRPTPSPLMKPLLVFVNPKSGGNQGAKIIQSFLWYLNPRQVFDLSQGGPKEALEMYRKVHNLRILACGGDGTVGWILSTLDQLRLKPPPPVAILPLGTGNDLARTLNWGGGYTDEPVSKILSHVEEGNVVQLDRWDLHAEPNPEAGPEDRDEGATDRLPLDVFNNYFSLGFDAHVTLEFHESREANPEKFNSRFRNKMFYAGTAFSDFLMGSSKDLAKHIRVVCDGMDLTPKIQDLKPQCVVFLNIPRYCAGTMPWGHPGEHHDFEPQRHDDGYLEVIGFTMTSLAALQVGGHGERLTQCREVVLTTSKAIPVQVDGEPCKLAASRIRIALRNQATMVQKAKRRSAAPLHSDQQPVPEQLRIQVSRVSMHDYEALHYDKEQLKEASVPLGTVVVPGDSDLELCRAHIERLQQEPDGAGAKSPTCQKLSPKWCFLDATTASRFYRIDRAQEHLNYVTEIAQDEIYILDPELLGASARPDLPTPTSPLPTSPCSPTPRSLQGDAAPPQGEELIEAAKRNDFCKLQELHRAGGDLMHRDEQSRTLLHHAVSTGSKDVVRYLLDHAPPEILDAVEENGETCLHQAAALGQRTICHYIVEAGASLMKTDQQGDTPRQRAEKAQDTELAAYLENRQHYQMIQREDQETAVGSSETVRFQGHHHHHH

Structure (SMILES): Cn1c(=O)c(C#N)c(N2CCN(C(c3ccc(F)cc3)c3ccccc3O)CC2)c2nc(Br)ccc21 (racemic) [Example 8, 6-bromo-4-{4-[(4-fluorophenyl)(2-hydroxyphenyl)methyl]piperazin-1-yl}-1-methyl-2-oxo-1,2-dihydro-1,5-naphthyridine-3-carbonitrile]
IC50 ([1]; Homo sapiens, Raji): 91 nM

Structure (SMILES): COc1ccccc1C(c1ccc(F)cc1)N1CCN(c2c([N+](=O)[O-])c(=O)n(C)c3ccc(C#N)nc23)CC1 (racemic) [Example 18, 8-{4-[(4-fluorophenyl)(2-methoxyphenyl)methyl]piperazin-1-yl}-5-methyl-7-nitro-6-oxo-5,6-dihydro-1,5-naphthyridine-2-carbonitrile]
IC50 (human DGKα): 960 nM
IC50 (human DGKζ): 2.5 µM
IC50 ([1]; Homo sapiens, Raji): 23 nM

Structure (SMILES): C#CCn1c(=O)c(C#N)c(N2CCN(C(c3ccc(F)cc3)c3ccccc3O)CC2)c2nc(Br)ccc21 (racemic) [Example 105, 6-bromo-4-(4-((4-fluorophenyl)(2-hydroxyphenyl)methyl)piperazin-1-yl)-2-oxo-1-(prop-2-yn-1-yl)-1,2-dihydro-1,5-naphthyridine-3-carbonitrile]
IC50 (human DGKα): 580 nM
IC50 (human DGKζ): 2.5 µM

Structure (SMILES): C#CCn1c(=O)c([N+](=O)[O-])c(N2CCN(C(c3ccc(F)cc3)c3ccc(F)cc3O)CC2)c2nc(C#N)ccc21 (racemic) [Example 119, 8-(4-((4-fluoro-2-hydroxyphenyl)(4-fluorophenyl)methyl)piperazin-1-yl)-7-nitro-6-oxo-5-(prop-2-yn-1-yl)-5,6-dihydro-1,5-naphthyridine-2-carbonitrile]
IC50 (human DGKα): 970 nM
IC50 (human DGKζ): 0.19 µM

Structure (SMILES): COc1cc(F)ccc1C(c1ccc(F)cc1)N1CCN(c2c([N+](=O)[O-])c(=O)n(C)c3ccc(C#N)nc23)CC1 (racemic) [Example 123, 8-(4-((4-fluoro-2-methoxyphenyl)(4-fluorophenyl)methyl)piperazin-1-yl)-5-methyl-7-nitro-6-oxo-5,6-dihydro-1,5-naphthyridine-2-carbonitrile]
IC50 (human DGKα): 2300 nM

Structure (SMILES): C#CCn1c(=O)c([N+](=O)[O-])c(N2CCN(C(c3ccc(F)cc3)c3ccc(F)cc3OC)CC2)c2nc(C#N)ccc21 (racemic) [Example 126, 8-(4-((4-fluoro-2-methoxyphenyl)(4-fluorophenyl)methyl)piperazin-1-yl)-7-nitro-6-oxo-5-(prop-2-yn-1-yl)-5,6-dihydro-1,5-naphthyridine-2-carbonitrile]
IC50 (human DGKα): 6100 nM
IC50 (human DGKζ): 0.33 µM

Structure (SMILES): C#CCOc1ccccc1C(c1ccc(F)cc1)N1CCN(c2c(C#N)c(=O)n(C)c3ccc(Br)nc23)CC1 (single isomer, unassigned) [Example 6, 6-bromo-4-{4-[(4-fluorophenyl) [2-(prop-2-yn-1-yloxy)phenyl]methyl]piperazin-1-yl}-1-methyl-2-oxo-1,2-dihydro-1,5-naphthyridine-3-carbonitrile]
IC50 (human DGKα): 6500 nM
IC50 (human DGKζ): > 240 µM
IC50 [1]: 820 nM

Structure (SMILES): C#CCOc1ccccc1C(c1ccc(F)cc1)N1CCN(c2c(C#N)c(=O)n(C)c3ccc(Br)nc23)CC1 (single isomer, unassigned) [Example 7, 6-bromo-4-{4-[(4-fluorophenyl) [2-(prop-2-yn-1-yloxy)phenyl]methyl]piperazin-1-yl}-1-methyl-2-oxo-1,2-dihydro-1,5-naphthyridine-3-carbonitrile]
IC50 (human DGKα): 500 nM
IC50 (human DGKζ): 120 µM
IC50 [1]: 75 nM

Structure (SMILES): Cn1c(=O)c(C#N)c(N2CCN(C(c3ccc(F)cc3)c3ccccc3O)CC2)c2nc(Br)ccc21 (single isomer, unassigned) [Example 9, 6-bromo-4-{4-[(4-fluorophenyl)(2-hydroxyphenyl)methyl]piperazin-1-yl}-1-methyl-2-oxo-1,2-dihydro-1,5-naphthyridine-3-carbonitrile]
IC50 [1]: > 100000 nM

Structure (SMILES): Cn1c(=O)c(C#N)c(N2CCN(C(c3ccc(F)cc3)c3ccccc3O)CC2)c2nc(Br)ccc21 (single isomer, unassigned) [Example 10, 6-bromo-4-{4-[(4-fluorophenyl)(2-hydroxyphenyl)methyl]piperazin-1-yl}-1-methyl-2-oxo-1,2-dihydro-1,5-naphthyridine-3-carbonitrile]
IC50 [1]: 3 nM

Structure (SMILES): Cn1c(=O)c(C#N)c(N2CCN(CC(O)c3ccc(F)cc3)CC2)c2nc(Br)ccc21 (single isomer, unassigned) [Example 29, 6-bromo-4-{4-[2-(4-fluorophenyl)-2-hydroxyethyl]piperazin-1-yl}-1-methyl-2-oxo-1,2-dihydro-1,5-naphthyridine-3-carbonitrile]
IC50 (human DGKα): 570 nM
IC50 (human DGKζ): > 240 µM
IC50 [1]: 2300 nM

Structure (SMILES): Cn1c(=O)c(C#N)c(N2CCN(CC(O)c3ccc(F)cc3)CC2)c2nc(Br)ccc21 (single isomer, unassigned) [Example 30, 6-bromo-4-{4-[2-(4-fluorophenyl)-2-hydroxyethyl]piperazin-1-yl}-1-methyl-2-oxo-1,2-dihydro-1,5-naphthyridine-3-carbonitrile]
IC50 (human DGKα): 1800 nM
IC50 (human DGKζ): 140 µM
IC50 [1]: 1100 nM

Structure (SMILES): COc1cc(F)ccc1C(c1ccc(F)cc1)N1CCN(c2c([N+](=O)[O-])c(=O)n(C)c3ccc(Br)nc23)CC1 (single isomer, unassigned) [Example 57, 6-bromo-4-(4-((4-fluoro-2-methoxyphenyl)(4-fluorophenyl)methyl)piperazin-1-yl)-1-methyl-3-nitro-1,5-naphthyridin-2(1H)-one]
IC50 (human DGKα): 1600 nM
IC50 (human DGKζ): 110 µM
IC50 [1]: 140 nM

Structure (SMILES): Cn1c(=O)c(C#N)c(N2CCN(C3CCc4cc(F)cc(O)c43)CC2)c2nc(Cl)ccc21 (stereo not drawn) [Example 201, 6-chloro-4-(4-(5-fluoro-7-hydroxy-2,3-dihydro-1H-inden-1-yl)piperazin-1-yl)-1-methyl-2-oxo-1,2-dihydro-1,5-naphthyridine-3-carbonitrile]
IC50 ([1]; Homo sapiens, Raji): 22000 nM

Structure (SMILES): Cn1c(=O)c(C#N)c(N2CCN(C(c3ccc(F)cc3)c3ccc(F)cc3O)CC2)c2nc(Cl)ccc21 (stereo not drawn) [Example 222, 6-chloro-4-(4-((4-fluoro-2-hydroxyphenyl)(4-fluorophenyl)methyl)piperazin-1-yl)-1-methyl-2-oxo-1,2-dihydro-1,5-naphthyridine-3-carbonitrile]
IC50 (human DGKα): 83 nM
IC50 ([1]; Homo sapiens, Raji): 68 nM

Structure (SMILES): Cc1ccc2c(n1)c(N1CCN(C(c3ccc(F)cc3)c3ccc(F)cc3)CC1)c(F)c(=O)n2C [Example 234, 4-(4-(bis(4-fluorophenyl)methyl)piperazin-1-yl)-3-fluoro-1,6-dimethyl-1,5-naphthyridin-2(1H)-one]
IC50 (human DGKα): 16000 nM
IC50 ([1]; Homo sapiens, Raji): 130 nM

IC50 (human DGKζ): > 240 µM
Structure (SMILES): COc1ccc(CN2CCN(c3c(C#N)c(=O)n(C)c4ccc(Cl)nc34)CC2)c(O)c1 [Example 301, 6-chloro-4-{4-[(2-hydroxy-4-methoxyphenyl)methyl]piperazin-1-yl}-1-methyl-2-oxo-1,2-dihydro-1,5-naphthyridine-3-carbonitrile]

Structure (SMILES): Cn1c(=O)c(C#N)c(N2CCN(Cc3cccc(Br)c3O)CC2)c2nc(Br)ccc21 [Example 380, 6-bromo-4-{4-[(3-bromo-2-hydroxyphenyl)methyl]piperazin-1-yl}-1-methyl-2-oxo-1,2-dihydro-1,5-naphthyridine-3-carbonitrile]
IC50 (human DGKα): 830 nM
IC50 (human DGKζ): > 240 µM
